{"source": "patent US8163795B2", "about": "“Chroman derivatives, medicaments and use in therapy” (Marshall Edwards, Inc., priority 2004, dated 2012)", "key": {"[1]": {"test_system": "MDA-MB-468 breast cancer cell line", "assay": "Proliferation assay (MTT)", "type": "cell-based", "conditions": "Homo sapiens, Breast MDA-MB-468, read-out: IC50"}, "[2]": {"assay": "DHE and HMC pharmacokinetics, oral, mice", "type": "in vivo, female BALB/c mice", "procedure": "HMC and DHE were prepared as homogenous suspensions in 1% CMC (m:v, water). Both formulations were delivered orally by gavage to female BALB/c mice at a dosage of 50 mg/kg. Three animals were allocated to each timepoint (15 min, 30 min, 1 hr, 4 hr and 24 hr). At each respective timepoint, animals were euthanased by cervical dislocation and blood collected. Free HMC was analysed by mass spectroscopy."}, "[3]": {"assay": "HMC pharmacokinetics i.v. and i.p., mice", "type": "in vivo, female BALB/c mice", "conditions": "for concentration at 0.25 hr / concentration at 0.5 h / concentration at 4 hr / concentration at 24 hr / concentration at 1 hr: female, BALB/c, mouse, serum, 50 mg/kg; for concentration at 0.25 hr: 50 mg/kg in 20% HPBCD; for concentration at 0.5 h: 0.50 hr", "procedure": "HMC was prepared as a solution in 20% hydroxypropyl-beta-cyclodextrin (m:v, water). […] Three animals were allocated to each timepoint (15 min, 30 min, 1 hr, 4 hr and 24 hr). At each respective timepoint, animals were euthanased by cervical dislocation and blood collected. Urine was also collected and analysed for HMC. Free HMC was analysed by mass spectroscopy."}, "[4]": {"test_system": "ME4405 melanoma cells (TRAIL sensitive)", "assay": "Apoptosis incidence in melanoma cells", "type": "cell-based"}, "[5]": {"test_system": "normal fibroblasts (MRC-5)", "assay": "Apoptosis in normal fibroblasts", "type": "cell-based", "conditions": "same concentration (8 μM) and exposure times (24 and 48 hr) as melanoma cells", "procedure": "Studies were conducted on normal fibroblasts (MRC-5) and TRAIL-sensitive melanoma cells (ME4405 and MEL-RM) using 8 μM of either DHE, or HMC over 24 and 48 hr of exposure (FIG. 9)."}}, "note": "Like-named read-outs stand apart in the source and are kept apart here."}
{"molecule": "COc1ccc(C2c3ccc(O)cc3OCC2c2ccc(O)cc2)cc1", "note": "(stereo not drawn) [Compound 1, 3-(4-hydroxyphenyl)-4-(4-methoxyphenyl)chroman-7-ol]", "values": [{"measurement": "IC50", "setting": "[1]; MDA-MB-468, Table 2.1", "result": "1.1 ± 0.35", "unit": "µM"}, {"measurement": "IC50", "setting": "[1]; MDA-MB-468, Table 2.2", "result": "2.8 ± 4.2", "unit": "µM"}, {"measurement": "concentration at 0.25 hr", "setting": "[2]; female, BALB/c, mouse, plasma, po, 50 mg/kg p.o., Time 0.25, read-out: Free plasma concentration", "result": "0.38 ± 0.04", "unit": "µM"}, {"measurement": "concentration at 0.5 hr", "setting": "[2]; female, BALB/c, mouse, plasma, po, 50 mg/kg p.o., Time 0.5, read-out: Free plasma concentration", "result": "1.3 ± 0.2", "unit": "µM"}, {"measurement": "concentration at 1 hr", "setting": "[2]; female, BALB/c, mouse, plasma, po, 50 mg/kg p.o., Time 1, read-out: Free plasma concentration", "result": "0.95 ± 0.4", "unit": "µM"}, {"measurement": "concentration at 4 hr", "setting": "[2]; female, BALB/c, mouse, plasma, po, 50 mg/kg p.o., Time 4, read-out: Free plasma concentration", "result": "0.19 ± 0.08", "unit": "µM"}, {"measurement": "concentration at 24 hr", "setting": "[2]; female, BALB/c, mouse, plasma, po, 50 mg/kg p.o., Time 24, read-out: Free plasma concentration", "result": 0, "unit": "nM"}, {"measurement": "maximum plasma concentration of the free form", "setting": "[2]; oral 50 mg/kg", "result": 1.3, "unit": "µM"}, {"measurement": "ratio of free:total", "setting": "[2]; oral 50 mg/kg", "result": 0.92}, {"measurement": "time of maximum free concentration", "setting": "[2]; oral 50 mg/kg", "result": 30, "unit": "min"}, {"measurement": "free HMC in urine", "setting": "[3]; 0.5 hr", "result": 3.3, "unit": "mM"}, {"measurement": "free HMC in urine", "setting": "[3]; 1 hr", "result": 3.9, "unit": "mM"}, {"measurement": "serum concentration i.p. vs i.v.", "setting": "[3]; 1 hr post administration", "result": "~4.5", "unit": "fold"}, {"measurement": "free HMC in urine", "setting": "[3]; 4 hr", "result": 0.093, "unit": "mM"}, {"measurement": "concentration at 0.25 hr", "setting": "[3]; ip", "result": 131, "unit": "µM"}, {"measurement": "concentration at 0.5 h", "setting": "[3]; ip", "result": 31.8, "unit": "µM"}, {"measurement": "concentration at 4 hr", "setting": "[3]; ip, 4 hr", "result": 0.15, "unit": "µM"}, {"measurement": "concentration at 24 hr", "setting": "[3]; ip", "result": 0.17, "unit": "µM"}, {"measurement": "concentration at 1 hr", "setting": "[3]; ip, i.p., 1 hr post administration, read-out: serum concentration", "result": 18.7, "unit": "µM"}, {"measurement": "concentration at 1 hr", "setting": "[3]; ip, ip, 1 hr, read-out: Serum HMC", "result": 18.7, "unit": "µM"}, {"measurement": "concentration at 0.25 hr", "setting": "[3]; iv", "result": 1070, "unit": "µM"}, {"measurement": "concentration at 0.5 h", "setting": "[3]; iv", "result": 199, "unit": "µM"}, {"measurement": "concentration at 4 hr", "setting": "[3]; iv, 4 hr", "result": 0.07, "unit": "µM"}, {"measurement": "concentration at 24 hr", "setting": "[3]; iv", "result": 0.05, "unit": "µM"}, {"measurement": "concentration at 1 hr", "setting": "[3]; iv, i.v., 1 hr post administration, read-out: serum concentration", "result": 3.98, "unit": "µM"}, {"measurement": "concentration at 1 hr", "setting": "[3]; iv, iv, 1 hr, read-out: Serum HMC", "result": 3.98, "unit": "µM"}, {"measurement": "HMC in plasma", "setting": "[3]; i.p. administration, up to 1 hour post administration", "result": 131, "unit": "µM"}, {"measurement": "elimination kinetics", "setting": "[3]; i.p., hours 1-4 post administration", "result": 4.6, "unit": "µM/h"}, {"measurement": "elimination kinetics", "setting": "[3]; i.p., up to 1 hour post administration", "result": 112, "unit": "µM/h"}, {"measurement": "HMC in plasma", "setting": "[3]; i.v. administration, up to 1 hour post administration", "result": 1069, "unit": "µM"}, {"measurement": "level of HMC in blood", "setting": "[3]; i.v. in HPBCD, 15 min post administration", "result": 1000, "unit": "µM"}, {"measurement": "rate of excretion from blood", "setting": "[3]; i.v., first hr post administration", "result": "~1000", "unit": "µM/h"}, {"measurement": "rate of excretion from blood", "setting": "[3]; i.v., hours 1-4 post administration, assuming linear excretion", "result": 0.97, "unit": "µM/h"}, {"measurement": "serum concentration of free HMC i.p. vs orally delivered HMC", "setting": "[3]; mice", "result": "~18", "unit": "fold"}, {"measurement": "Percent Apoptosis", "setting": "[4]; 24 hr exposure, 1 uM", "result": 0, "unit": "%"}, {"measurement": "Percent Apoptosis", "setting": "[4]; 24 hr exposure, 2 uM", "result": 8, "unit": "%"}, {"measurement": "Percent Apoptosis", "setting": "[4]; 24 hr exposure, 4 uM", "result": 9, "unit": "%"}, {"measurement": "Percent Apoptosis", "setting": "[4]; 24 hr exposure, 8 uM", "result": 11, "unit": "%"}, {"measurement": "Percent Apoptosis", "setting": "[4]; 24 hr exposure, 20 uM", "result": 19, "unit": "%"}, {"measurement": "Percent Apoptosis", "setting": "[4]; 48 hr exposure, 1 uM", "result": 1.5, "unit": "%"}, {"measurement": "Percent Apoptosis", "setting": "[4]; 48 hr exposure, 2 uM", "result": 8, "unit": "%"}, {"measurement": "Percent Apoptosis", "setting": "[4]; 48 hr exposure, 4 uM", "result": 42, "unit": "%"}, {"measurement": "Percent Apoptosis", "setting": "[4]; 48 hr exposure, 8 uM", "result": 20, "unit": "%"}, {"measurement": "Percent Apoptosis", "setting": "[4]; 48 hr exposure, 20 uM", "result": 18, "unit": "%"}, {"measurement": "induction of apoptosis in normal fibroblasts", "setting": "[5]", "result": "do not induce apoptosis"}]}
